Test results from patent US10828344B2, “Antimicrobial yeast preparation and methods for preparation and use thereof” (priority 2016, dated 2020).
Marks after values point to notes of the source that are not given here.

Legend:
[1] = tested on: Salmonella enterica ATCC 8759; test: Minimal Inhibitory Concentration test (OD) with bactericidal/static check; format: cell-based; settings: 0 CFU/ml needed for bactericidal
Method: (§1) Sterile, 12×75 mm plastic test tubes were used to perform the test. 1 mL of the test compositions were placed in the appropriate labeled tubes. 1 mL of each adjusted bacterial inoculum was added to each appropriate labeled tube in the dilution series and mixed. The tubes were closed with loose caps. The tubes were then incubated at 37° C. for 24 hours with the exception of the Campylobacter tubes, which were incubated microaerophilically at 42° C. for 48 hours. At the end of the incubation phases the tubes were examined for turbidity. All optically clear tubes were plated to agar plates to determine if the test article was bactericidal or bacteriostatic. A product was considered to be “bactericidal” if less than 3 CFU were detected (Clear tubes with a few CFU), and “bacteriostatic” if greater the 3 CFU were detected (Clear tubes and growth detected).
(§2) The tubes were examined for turbidity, indicating growth of the organism. […] The lowest concentration of the agent that inhibits growth of the organism, as detected by lack of visual turbidity (matching the negative control) was designated the minimum inhibitory concentration (MIC).
(§3) Additional experiments were performed to determine bactericidal and bacteriostatic effects of preparation made from wine lees from different varietals, effects of aging of preparations on bactericidal and bacteriostatic effectiveness, and to compare effectiveness to conventional antibiotic treatment. Methods were as described above for testing bacteriostatic and bactericidal effects. Preparations were tested against Salmonella enterica (ATCC 8759) and E. coli 0157:H7 (ATCC 700728).
(§4) The following preparations were tested: a lees preparation from Chardonnay grapes that had not been enzymatically treated and had been prepared approximately 2 months before testing (CH16), a lees preparation from Pinot Noir grapes that had not been enzymatically treated and had been prepared approximately 14 months before testing (PNC15), a lees preparation from Pinot Noir grapes that had not been enzymatically treated and had been prepared approximately 2 months before testing (PNC16), a lees preparation from Cabernet Franc grapes that had been enzymatically treated and had been prepared approximately 2 months before testing (CFE16), CELMANAX™ (SCP) (hydrolyzed yeast), and salinomycin, 0.005% solution (antibiotic).

[2] = tested on: Escherichia coli 0157:H7 ATCC 700728; test: as above; format: cell-based; settings: for Bactericidal or Static check of optically clear MIC tubes, Escherichia coli 0157:H7 ATCC 700728: 0 CFU/ml needed for bactericidal
Method: as §1, §2, §3, §4

[3] = In vivo calf study: rectal temperature and fecal consistency score; design: species or system Holstein calves
Method: (§5) An in vivo study was performed to compare effects of lees-based preparations as disclosed herein to conventional commercially available product yeast fermentation product and Decoquinate on performance and health of neonatal Holstein calves. […] PNC16 was compared with CELMANAX™ (SCP) (hydrolyzed yeast) and an antibiotic, DECCOX®-M manufactured by Zoetis Inc., Decoquinate.
(§6) The study was conducted at Spruce Haven Farms, Union Springs, N.Y., a commercial dairy consisting of 1,800 mature cows. There were thirty calf hutches available to conduct the trial that were aligned in one row. The study consisted of thirty female Holstein calves. As calves were born they were successively placed on one of four treatments until 28 calves were assigned, then the remaining 2 calves were assigned to treatment 2 and 3 respectively.
(§7) Fecal samples (˜10-20 g) were obtain via digital stimulation from each calf on day 7, 14 and 21 of life. Samples were sent to the Cornell Diagnostic Laboratory for zinc sulfate floatation to determine type and degree of fecal shedding. Body temperatures were take just prior to fecal collections on day 7, 14 and 21 of life. Fecal consistency scores: were recorded for each calf daily using the following scale: 1=soft, solid consistency, no fluid, 2=semi-solid, mostly solid, 3=runny: semi solid, mostly fluid, 4=watery, all fluid 5=watery with blood.

[4] = tested on: cryptosporidiosis; settings: Moore (2003); cited from earlier work
[5] = tested on: Cryptosporidium oocytes; test: In vivo calf study: fecal shedding of Cryptosporidium oocytes; design: species or system Cryptosporidium (in Holstein calves)
Method: as §5, §6, §7

[6] = tested on: Eimeria species; test: In vivo calf study: fecal shedding of Eimeria species; design: species or system Eimeria (in Holstein calves); settings: day 21 of age (FIG. 4); Control 71.5%
Method: as §5, §6, §7

[7] = In vivo calf study: body weight gain; design: species or system Holstein calves
Method: An in vivo study was performed to compare effects of lees-based preparations as disclosed herein to conventional commercially available product yeast fermentation product and Decoquinate on performance and health of neonatal Holstein calves. Lees was prepared as described above (a lees preparation from Pinot Noir grapes that had not been enzymatically treated and had been prepared approximately 6 months before testing (PNC16)). PNC16 was compared with […]) (hydrolyzed yeast) and an antibiotic, DECCOX®-M manufactured by Zoetis Inc., Decoquinate. The study was conducted at Spruce Haven Farms, Union Springs, N.Y., a commercial dairy consisting of 1,800 mature cows. There were thirty calf hutches available to conduct the trial that were aligned in one row. The study consisted of thirty female Holstein calves. As calves were born they were successively placed on one of four treatments until 28 calves were assigned, then the remaining 2 calves were assigned to treatment 2 and 3 respectively. […] Calves were housed in fiberglass hutches (4'×8') with an outside run (4'×6') with straw bedding inside the hutch. Within 2 hr. of birth, calves were offered 4 lb. of colostrum. Thereafter, pasteurized whole milk was offered twice daily (08:00 and 16:00 h) and water and dry calf starter was available at all times in removable buckets. During the morning feeding the liquid (CEL or PNC16) or dry (22.7 mg) test articles were dissolved in the milk. Calves body weights were recorded when moved into the hutches and again at 21 d of life.

[8] = In vivo calf study: hematology and haptoglobin; design: species or system Holstein calves; settings: 10 day old calves
Method: An in vivo study was performed to compare effects of lees-based preparations as disclosed herein to conventional commercially available product yeast fermentation product and Decoquinate on performance and health of neonatal Holstein calves. Lees was prepared as described above (a lees preparation from Pinot Noir grapes that had not been enzymatically treated and had been prepared approximately 6 months before testing (PNC16)). PNC16 was compared with […]) (hydrolyzed yeast) and an antibiotic, DECCOX®-M manufactured by Zoetis Inc., Decoquinate. The study was conducted at Spruce Haven Farms, Union Springs, N.Y., a commercial dairy consisting of 1,800 mature cows. There were thirty calf hutches available to conduct the trial that were aligned in one row. The study consisted of thirty female Holstein calves. As calves were born they were successively placed on one of four treatments until 28 calves were assigned, then the remaining 2 calves were assigned to treatment 2 and 3 respectively. […] Blood samples were collected via jugular vein-puncture before the pm milk feeding on day 10 of life. Samples were collected in heparinized vacutainers. Whole blood was analyzed for hematology: red blood count, hematocrit, hemoglobin, mean cell volume, mean cell hemoglobin, mean cell hemoglobin concentration, red cell distribution width, reticulocyte, white blood cell: neutrophil, lymphocyte, monocyte, eosinophil, basophil, platelet, mean platelet volume, platelet, distribution width and procalcitonin. Plasma was obtained by centrifugation at 1,500×g for 15 min. Plasma samples were frozen (-40° C.) and shipped to the Michigan State University (DCPAH) laboratory for haptoglobin analysis.

[9] = 20 Mg/ml (ABX: salinomycin 0.005% solution)
[10] = 40 Mg/ml (ABX: salinomycin 0.005% solution)

CC[C@@H](C(=O)[C@@H](C)[C@@H](O)[C@H](C)[C@@H]1O[C@@H]([C@@H](CC)C(=O)O)CC[C@@H]1C)[C@H]1O[C@]2(C=C[C@@H](O)[C@]3(CC[C@@](C)([C@H]4CC[C@](O)(CC)[C@H](C)O4)O3)O2)[C@H](C)C[C@@H]1C [ABX, salinomycin]
Bactericidal or Static check of optically clear MIC tubes, Salmonella enterica ATCC 8759 [1, 9]: 50,000 CFU/ml | Bactericidal or Static check of optically clear MIC tubes, Salmonella enterica ATCC 8759 [1, 10]: 50,000 CFU/ml | Turbidity Reading (OD), Escherichia coli 0157:H7 ATCC 700728 [2]: .075^c OD | Bactericidal or Static check of optically clear MIC tubes, Escherichia coli 0157:H7 ATCC 700728 [2, 9]: 950 CFU/ml | Bactericidal or Static check of optically clear MIC tubes, Escherichia coli 0157:H7 ATCC 700728 [2, 10]: 950 CFU/ml

CCCCCCCCCCOc1cc2c(O)c(C(=O)OCC)cnc2cc1OCC [DECCOX ®, Decoquinate]
Fecal consistency score (FCS) ([3]; between day 12 and 17 d of life, scale 1-5, Control 2.3): 2.4 | Rectal temperature ([3]; day 14, comparison in words): higher (p<005) than PNC16 | clinical benefit as preventative treatment for cryptosporidiosis [4]: no clinical benefit | Cryptosporidium Oocytes/g of feces ([5]; Day 1, Control 0): 0 Oocytes/g of feces | % of calves shedding Cryptosporidium oocytes ([5]; Day 1, Control 0.0): 0.0% | % of calves shedding Cryptosporidium oocytes ([5]; Day 7, Control 71.4): 28.6% | Cryptosporidium Oocytes/g of feces ([5]; Day 7, Control 85638): 2^b Oocytes/g of feces | % of calves shedding Cryptosporidium oocytes ([5]; Day 14, Control 85.0): 100.0% | Cryptosporidium Oocytes/g of feces ([5]; Day 14, Control 14153): 209473^a Oocytes/g of feces | % of calves shedding Cryptosporidium oocytes ([5]; Day 21, Control 28.6): 28.6% | Cryptosporidium Oocytes/g of feces ([5]; Day 21, Control 368): 11^b Oocytes/g of feces | Percent of calves shedding Eimeria [6]: 0% | Birth wt ([7]; baseline at birth, Control 40.4): 40.2 kg | Body wt gain ([7]; birth through day 21, Control 6.8): 7.3 kg | ADG ([7]; birth through day 21, Control .32): .35 kg/day | Day 21 wt ([7]; day 21 of life, Control 47.1): 47.6^b kg | Basophil (Baso) ([8]; Control 0.01): 0.00 K/ul | Monocyte (Mono) ([8]; Control 0.02): 0.05 K/ul | Eosinophil (Eosin) ([8]; Control 0.03): 0.08 K/ul | Neutrophil (NEUT) ([8]; Control 3.7): 5.1 K/ul | Lymphocyte (LYMPH) ([8]; Control 4.2): 2.4 K/ul | Mean Platelet Volume (MPV) ([8]; Control 5.5): 5.6 fL | Platelet Distribution Width (PDW) ([8]; Control 6.34): 7.72^a fL | Reticulocyte (Ret) ([8]; Control 7.13): 1.49^b K/ul | Red Blood Count (RBC) ([8]; Control 7.4): 7.1 M/uL | White Blood Cell (WBC) ([8]; Control 7.96): 7.67^b K/ul | Hemoglobin (HBG) ([8]; Control 9.4): 8.9 g/dL | Mean Cell Hemoglobin (MCH) ([8]; Control 12.6): 12.4 pg | Hematocrit (HCT) ([8]; Control 29.8): 28.5% | Red Cell Distribution Width (RDW) ([8]; Control 31.4): 30.7% | Mean Cell Hemoglobin Concentration (MCHC) ([8]; Control 31.5): 31.4 g/dL | Mean Cell Volume (MCV) ([8]; Control 40.0): 39.8 fL | Platelet (Plt) ([8]; Control 654.7): 579.8^b K/ul | Neutrophil/Lymphocyte Ratio (NLR) ([8]; Control .87): 2.11^a | Percentages Baso ([8]; percent of white cells, Control 0.19): 0.00% | Percentages Mono ([8]; percent of white cells, Control 0.21): 0.63% | Percentages Eosin ([8]; percent of white cells, Control 0.34): 0.98% | Percentages Neutrophil ([8]; percent of white cells, Control 48.38): 66.63^a % | Percentages Lymphocyte ([8]; percent of white cells, Control 50.87): 31.75^b % | Haptoglobin (Hp) ([8]; plasma, Control 24.13): 64.5 µg/mL
